According to the supplement of paper PMC10307832:

What was measured:
Assay in all cases: relative viability (nuclei count vs DMSO), 5 days (fraction); higher = more cells survive
RO-3306 + Palbociclib = compound: C1=CC2=C(C=CC(=C2)C=C3C(=O)NC(=NCC4=CC=CS4)S3)N=C1 [RO-3306] + CC(=O)c1c(C)c2cnc(Nc3ccc(N4CCNCC4)cn3)nc2n(C2CCCC2)c1=O [Palbociclib] (partner 0.5 µM)
Summary of the method: (§1)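 Medians of duplicate plates are given as relative viability. That measure is the nuclei count in treated wells divided by the count in vehicle wells. Counts were taken on 4× images of lung cancer cell lines in 1536-well plates, 5 days after pin-tool dosing the day after seeding with one drug alone or a fixed anchor-drug dose plus five library-drug doses (not always all listed) in √10 steps.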

[1] = compound: O=S(=O)(c1ccccc1)N(CC(F)(F)F)c1ccc(C(O)(C(F)(F)F)C(F)(F)F)cc1 + CS(=O)(=O)N1CCN(Cc2cc3nc(-c4cccc5[nH]ncc45)nc(N4CCOCC4)c3s2)CC1 [Pictilisib] (partner 1 µM)
Summary of the method: as §1

[2] = compound: O=S(=O)(c1ccccc1)N(CC(F)(F)F)c1ccc(C(O)(C(F)(F)F)C(F)(F)F)cc1 + CC(C)C[C@H](NC(=O)[C@H](Cc1ccccc1)NC(=O)c1cnccn1)B(O)O [Bortezomib] (partner 0.002 µM)
Summary of the method: as §1

RO-3306 + Lapatinib = compound: C1=CC2=C(C=CC(=C2)C=C3C(=O)NC(=NCC4=CC=CS4)S3)N=C1 [RO-3306] + CS(=O)(=O)CCNCc1ccc(-c2ccc3ncnc(Nc4ccc(OCc5cccc(F)c5)c(Cl)c4)c3c2)o1 [Lapatinib] (partner 2 µM)
Summary of the method: as §1

[3] = compound: O=S(=O)(c1ccccc1)N(CC(F)(F)F)c1ccc(C(O)(C(F)(F)F)C(F)(F)F)cc1 + CS(=O)(=O)CCNCc1ccc(-c2ccc3ncnc(Nc4ccc(OCc5cccc(F)c5)c(Cl)c4)c3c2)o1 [Lapatinib] (partner 2 µM)
Summary of the method: as §1

Row | Cell Line | relative viability (RO-3306 + Palbociclib; first compound 0.01 µM) | relative viability (RO-3306 + Palbociclib; first compound 0.03162 µM) | relative viability (RO-3306 + Palbociclib; first compound 0.1 µM) | relative viability (RO-3306 + Palbociclib; first compound 0.3162 µM) | relative viability (RO-3306 + Palbociclib; first compound 1 µM) | relative viability ([1]; first compound 0.8 µM) | relative viability ([1]; first compound 2.53 µM) | relative viability ([1]; first compound 8 µM) | relative viability ([2]; first compound 0.8 µM) | relative viability ([2]; first compound 2.53 µM) | relative viability ([2]; first compound 8 µM) | relative viability (RO-3306 + Lapatinib; first compound 0.01 µM) | relative viability (RO-3306 + Lapatinib; first compound 0.03162 µM) | relative viability (RO-3306 + Lapatinib; first compound 0.1 µM) | relative viability (RO-3306 + Lapatinib; first compound 0.3162 µM) | relative viability (RO-3306 + Lapatinib; first compound 1 µM) | relative viability ([3]; first compound 0.8 µM) | relative viability ([3]; first compound 2.53 µM) | relative viability ([3]; first compound 8 µM)
1 | NCI-H441 | 0.197 | 0.179 | 0.182 | 0.204 | 0.157 | 0.523 | 0.401 | 0.495 | 0.737 | 0.479 | 0.597 | – | – | – | – | – | – | – | –
2 | HCC-366 | 0.531 | 0.395 | 0.381 | 0.382 | 0.316 | 0.181 | 0.165 | 0.135 | 1.23 | 1.08 | 1.08 | 1.1 | 0.939 | 0.91 | 1.09 | 0.759 | 1.29 | 1.13 | 0.951
3 | NCI-H2085 | 0.448 | 0.48 | 0.506 | 0.446 | 0.471 | 0.428 | 0.543 | 0.455 | 1.12 | 0.943 | 1.02 | 0.726 | 0.746 | 0.798 | 0.727 | 0.757 | 0.759 | 0.677 | 0.65
4 | SW 1573 | 0.445 | 0.399 | 0.377 | 0.316 | 0.369 | 0.504 | 0.38 | 0.45 | 1.34 | 0.936 | 0.811 | 1.11 | 1.01 | 1.17 | 1.12 | 0.947 | 1.18 | 1.2 | 1.06
5 | NCI-H1299 | – | – | – | – | – | 0.875 | 0.78 | 0.663 | 1.02 | 0.981 | 0.946 | 1 | 1.03 | 0.977 | 0.977 | 0.986 | 0.923 | 0.952 | 0.879
6 | H3255 | 0.299 | 0.373 | 0.294 | 0.305 | 0.321 | 0.492 | 0.51 | 0.396 | 0.564 | 0.708 | 0.761 | 0.236 | 0.227 | 0.245 | 0.26 | 0.26 | 0.249 | 0.231 | 0.223
7 | NCI-H2023 | 0.389 | 0.376 | 0.276 | 0.443 | 0.251 | 0.183 | 0.221 | 0.193 | 1 | 0.899 | 0.831 | 0.769 | 0.645 | 0.822 | 1.04 | 0.683 | 0.742 | 0.743 | 0.55
8 | HOP-62 | 0.519 | 0.481 | 0.416 | 0.43 | 0.446 | 1.07 | 0.361 | 0.763 | 0.39 | 0.634 | 0.93 | 1.47 | 0.771 | 0.93 | 1.04 | 1.06 | 1.18 | 0.812 | 0.798
9 | LC-2-ad | 0.504 | 0.399 | 0.512 | 0.515 | 0.483 | 0.469 | 0.377 | 0.437 | 1.02 | 1.03 | 0.898 | 0.949 | 0.979 | 0.868 | 0.948 | 0.883 | 1.04 | 0.876 | 0.99
10 | NCI-H2347 | 0.475 | 0.438 | 0.397 | 0.387 | 0.417 | 0.516 | 0.597 | 0.81 | 1.32 | 0.819 | 0.92 | 0.914 | 0.932 | 0.969 | 0.897 | 0.91 | 1.02 | 1.03 | 0.963
11 | NCI-H1651 | 0.542 | 0.456 | 0.505 | 0.538 | 0.496 | 0.681 | 0.598 | 0.598 | 0.981 | 0.957 | 0.797 | 0.839 | 0.648 | 0.77 | 0.972 | 0.644 | 0.9 | 0.821 | 0.847
12 | COR-L23 | 0.286 | 0.252 | 0.293 | 0.297 | 0.257 | 1.23 | 0.796 | 0.901 | 1.18 | 0.945 | 0.914 | 0.708 | – | 0.942 | 1.06 | 1.18 | 1.24 | 0.872 | 0.913
13 | ABC-1 | 0.869 | 0.406 | 0.66 | 0.799 | 0.458 | 0.7 | 0.602 | 0.755 | 0.27 | 0.297 | 0.293 | 1.25 | 1.28 | 1.17 | 1.16 | 1.05 | 1.45 | 1.21 | 1.26
14 | NCI-H1755 | 0.421 | 0.474 | 0.48 | 0.417 | 0.45 | 0.376 | 0.361 | 0.382 | 1.07 | 0.933 | 1.03 | 1.2 | 1.04 | 1.03 | 1.04 | 1.01 | 1.15 | 0.797 | 1
15 | NCI-H2170 | 0.416 | 0.398 | 0.372 | 0.433 | 0.378 | 0.305 | 0.291 | 0.307 | – | – | – | 0.254 | 0.302 | 0.272 | 0.265 | 0.302 | 0.276 | 0.299 | 0.288
16 | NCI-H23 | 0.513 | – | 0.46 | 0.472 | 0.454 | 0.641 | 0.521 | 0.538 | 1.45 | 1.23 | 1.09 | 1 | 1.02 | 1.05 | 1.12 | 0.748 | 1.24 | 1.24 | 1.14
17 | NCI-H1395 | 0.696 | 0.678 | 0.58 | 0.641 | 0.558 | 0.569 | 0.562 | 0.635 | – | – | – | 0.817 | 0.925 | 0.824 | 1.08 | 0.826 | 1.1 | 0.993 | 1.13
